Results published in patent US7351408B2 (priority 1997, dated 2008).

Tests used:
Assay type in all cases: cell-based, human
HeLa cells = test system: HeLa cells
Jurkat cells [1] = test: Normal sialic acid released by sialidase digestion, quantified by HPAEC
Description: We therefore evaluated the effects of ManLev treatment on the amount of normal sialic acid on Jurkat cells, expecting a reduction.

Jurkat cells [2] = test system: Jurkat cells
Jurkat cells [3] = test: Cell morphology and rate of cell growth during prolonged treatment; conditions: up to 6 weeks
Description: We have also determined the quantitative and physiological limits to the cell surface expression of reactive functional groups. […] At saturation, we calculated the number of ketones accessible to chemoselective ligation and flow cytometry analysis to be approximately 1.8×10^6 per cell (32). No effects on cell morphology or the rate of cell growth were observed during prolonged (up to 6 weeks) treatment with ManLev.

HL-60 cells = test system: HL-60 cells

Molecule | increase in fluorescence above the background level (ketone expression) (HeLa cells) | amount of sialic acid released by sialidase digestion, lower than that from ManNAc-treated cells (Jurkat cells [1]) | dose dependence of ketone expression (Jurkat cells [2]) | increase in fluorescence above the background level (ketone expression) (Jurkat cells [2]) | number of ketones accessible to chemoselective ligation and flow cytometry analysis (Jurkat cells [2]) | effects on cell morphology or the rate of cell growth (Jurkat cells [3]) | increase in fluorescence above the background level (ketone expression) (HL-60 cells) | effect on ketone expression resulting from ManLev treatment (Jurkat cells [2]) | effect on ketone expression resulting from ManLev treatment (HeLa cells) | effect on ketone expression resulting from ManLev treatment (HL-60 cells)
CC(=O)CCC(=O)N[C@@H]1C(O)O[C@H](CO)[C@@H](O)[C@@H]1O (stereo partly drawn) [ManLev, N-levulinoyl mannosamine] | ≤ 30 fold | approximately 10 fold | dose dependent and saturable | ≤ 30 fold | approximately 1.8×10^6 per cell | No effects | ≤ 30 fold | – | – | –
CC(=O)N[C@@H]1C(O)O[C@H](CO)[C@@H](O)[C@@H]1O (stereo partly drawn) [ManNAc, N-Acetylmannosamine, reference compound] | only a background level of fluorescence | – | – | only a background level of fluorescence | – | – | only a background level of fluorescence | inhibited | – | –
CC(=O)CCC(=O)N[C@H]1C(O)O[C@H](CO)[C@@H](O)[C@@H]1O (stereo partly drawn) [GlcLev, N-levulinoyl glucosamine] | – | – | – | only background fluorescence | – | – | – | – | – | –
tunicamycin | – | – | – | – | – | – | – | inhibited by tunicamycin in a dose-dependent fashion | unaffected | unaffected
